Experimental data as given in publication PMC3813752 (PLoS ONE, 2013).
Like-named read-outs stand apart in the source and are kept apart here.

How the values were obtained:
human CB2 receptor [1] = biological target: T1, human CB2 receptor (Homo sapiens, UniProt P34972); assay: cAMP accumulation assay, CHO cells expressing CB2; format: cell-based; details: in words; standard ligands partly from the literature
human GPR18 [2] = biological target: T2, human GPR18 (Homo sapiens, UniProt Q14330); details: for functional property at GPR18 (agonist/antagonist): in words; for agonist effect on β-arrestin recruitment at GPR18: test compound 10 µM, related to effect of Δ9-THC 10 µM = 100%
T2 sequence (Q14330 1-331): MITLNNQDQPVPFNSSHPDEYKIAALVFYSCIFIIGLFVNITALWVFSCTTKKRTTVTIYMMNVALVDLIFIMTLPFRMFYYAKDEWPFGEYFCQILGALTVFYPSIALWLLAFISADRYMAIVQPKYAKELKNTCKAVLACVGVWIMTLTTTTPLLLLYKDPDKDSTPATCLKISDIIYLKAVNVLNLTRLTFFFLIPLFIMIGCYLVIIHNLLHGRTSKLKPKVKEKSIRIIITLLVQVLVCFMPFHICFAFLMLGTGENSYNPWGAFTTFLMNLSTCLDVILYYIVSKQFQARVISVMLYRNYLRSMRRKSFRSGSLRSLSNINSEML

human GPR18 [3] = biological target: T2, human GPR18; assay: cell-based; details: for inhibition at 10 µM: CHO, read-out: % inhibition of Δ9-THC (10 µM)-induced β-arrestin recruitment at GPR18, test compound at 10 µM; for IC50: GPR18 IC50, β-arrestin recruitment, antagonist mode vs. Δ9-THC (10 µM)
human GPR55 = human GPR55 (Homo sapiens, UniProt Q9Y2T6); assay: β-arrestin recruitment assay (PathHunter), CHO cells expressing GPR55; details: for inhibition at 10 µM: CHO; for functional property at GPR55 (agonist/antagonist): in words; for IC50: antagonist mode vs. LPI (1 µM); for agonist effect on β-arrestin recruitment at GPR55: test compound 10 µM, related to effect of LPI 1 µM = 100%
Sequence of human GPR55 (Q9Y2T6 whole entry): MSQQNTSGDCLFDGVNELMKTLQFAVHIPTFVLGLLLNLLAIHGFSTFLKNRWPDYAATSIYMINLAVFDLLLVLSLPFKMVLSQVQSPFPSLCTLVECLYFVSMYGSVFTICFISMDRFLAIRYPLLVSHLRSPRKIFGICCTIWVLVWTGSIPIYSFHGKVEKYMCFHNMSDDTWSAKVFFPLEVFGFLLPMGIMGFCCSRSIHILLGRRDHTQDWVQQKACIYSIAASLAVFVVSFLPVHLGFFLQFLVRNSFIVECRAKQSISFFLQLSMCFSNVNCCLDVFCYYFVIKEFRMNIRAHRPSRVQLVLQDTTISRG

human CB1 receptor = human CB1 receptor (Homo sapiens, UniProt P21554); assay: biochemical; format: binding; details: for inhibition at 10 µM: vs. [3H]CP55,940, read-out: % inhibition of radioligand binding at CB1; for Ki: membranes of CHO cells expressing human CB1, three independent experiments in duplicates, read-out: Ki CB1, heterologous competition vs. [3H]CP55,940
Sequence of human CB1 receptor (P21554 whole entry): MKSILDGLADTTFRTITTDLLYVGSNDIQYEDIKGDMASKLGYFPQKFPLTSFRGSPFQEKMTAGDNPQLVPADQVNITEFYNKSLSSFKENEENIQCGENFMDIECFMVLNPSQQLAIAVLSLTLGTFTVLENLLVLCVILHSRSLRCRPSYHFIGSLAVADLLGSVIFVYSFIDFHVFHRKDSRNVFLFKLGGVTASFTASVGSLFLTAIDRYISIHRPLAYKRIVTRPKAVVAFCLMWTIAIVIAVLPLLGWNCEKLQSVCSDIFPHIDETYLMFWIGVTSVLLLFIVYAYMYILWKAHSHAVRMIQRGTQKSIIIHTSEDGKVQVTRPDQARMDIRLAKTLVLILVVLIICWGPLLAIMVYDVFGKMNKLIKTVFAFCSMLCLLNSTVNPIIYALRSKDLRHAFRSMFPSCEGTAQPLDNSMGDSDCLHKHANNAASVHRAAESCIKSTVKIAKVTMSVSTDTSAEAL

human CB2 receptor [4] = biological target: T1, human CB2 receptor; assay: Radioligand binding (heterologous competition) vs. [3H]CP55,940 at CB2; details: for inhibition at 10 µM: read-out: % inhibition of radioligand binding at CB2
[5] = read-out: % inhibition of LPI (1 µM)-induced β-arrestin recruitment at GPR55
[6] = GPR55 IC50, β-arrestin recruitment
[7] = Ki CB2, heterologous competition vs. [3H]CP55,940, membranes of CHO cells expressing human CB2, three independent experiments in duplicates
[8] = membranes of CHO cells expressing human CB2, three independent experiments in duplicates, read-out: Ki CB2, heterologous competition vs. [3H]CP55,940
[9] = read-out: % inhibition of LPI (1 µM)-induced β-arrestin recruitment at GPR55, test compound at 10 µM

T1 sequence (P34972 whole entry): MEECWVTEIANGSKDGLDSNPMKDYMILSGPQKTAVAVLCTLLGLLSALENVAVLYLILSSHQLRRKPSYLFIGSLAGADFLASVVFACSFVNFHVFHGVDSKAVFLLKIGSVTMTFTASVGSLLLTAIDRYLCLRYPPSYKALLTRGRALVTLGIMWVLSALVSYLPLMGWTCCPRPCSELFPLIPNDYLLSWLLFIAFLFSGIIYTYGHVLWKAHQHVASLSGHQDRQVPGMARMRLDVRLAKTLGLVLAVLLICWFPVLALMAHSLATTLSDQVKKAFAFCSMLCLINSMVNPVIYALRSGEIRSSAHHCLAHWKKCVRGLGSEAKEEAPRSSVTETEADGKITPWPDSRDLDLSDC

Row | SMILES | inhibition at 10 µM (human GPR18 [3]) | IC50 (human GPR18 [3]) | EC50 (human GPR55) | agonist effect on β-arrestin recruitment at GPR55 (human GPR55) | agonist effect on β-arrestin recruitment at GPR18 (human GPR18 [2]) | EC50 (human GPR18 [3]) | IC50 (human GPR55; [6]) | inhibition at 10 µM (human CB1 receptor) | Ki (human CB1 receptor) | Ki (human CB2 receptor [4]; [8]) | inhibition at 10 µM (human GPR55; [9]) | further results
1 | CCCCCc1cc(O)c2c(c1)OC(C)(C)[C@@H]1CCC(C)=C[C@@H]21 [Compound 1, Δ^9-tetrahydrocannabinol, reference compound] | 0% | > 10 µM | > 10 µM | 0% |  |  |  |  |  |  |  | functional property at CB2 (agonist/antagonist) (human CB2 receptor [1]): agonist; functional property at GPR18 (agonist/antagonist) (human GPR18 [2]): agonist; EC50 (human GPR18 [2]; read-out: GPR18 EC50, β-arrestin recruitment, agonist mode): 4.61 ± 0.5 µM; inhibition at 10 µM (human GPR55; [5]): 65%; functional property at GPR55 (agonist/antagonist) (human GPR55): antagonist; IC50 (human GPR55; read-out: GPR55 IC50, β-arrestin recruitment): 14.2 ± 5.4 µM
2 | Cc1c(C(=O)NN2CCCCC2)nn(-c2ccc(Cl)cc2Cl)c1-c1ccc(Cl)cc1 [Compound 5, rimonabant, reference compound] | 94% |  |  |  | 0% | > 10 µM | > 10 µM |  |  |  |  | functional property at CB2 (agonist/antagonist) (human CB2 receptor [1]): antagonist; functional property at GPR18 (agonist/antagonist) (human GPR18 [2]): antagonist; IC50 (human GPR18 [2]; read-out: GPR18 IC50, β-arrestin recruitment, antagonist mode vs. Δ9-THC (10 µM)): 10.1 ± 1.3 µM; inhibition at 10 µM (human GPR55; [5]): 0%; functional property at GPR55 (agonist/antagonist) (human GPR55): agonist; EC50 (human GPR55; read-out: GPR55 EC50, β-arrestin recruitment, agonist mode): 2.01 ± 0.66 µM
3 | C=CCc1ccc(O)c(-c2ccc(O)c(CC=C)c2)c1 [Compound 10, honokiol, reference compound] | 45% | ~10 µM | > 10 µM | 27% | 0% | > 10 µM | ~10 µM |  |  |  |  | inhibition at 10 µM (human GPR55; [5]): 42%
4 | Oc1ccccc1-c1ccccc1O [Compound 40, 2-(2-hydroxyphenyl)phenol] |  |  |  |  |  |  |  | 11% | > 1 µM |  |  | Ki (human CB2 receptor [4]; [7]): > 1 µM; inhibition at 10 µM (human CB2 receptor [4]): 0%
5 | Cc1ccc(O)c(-c2cc(C)ccc2O)c1 [Compound 41] | 0% | > 10 µM | > 10 µM | 30% | 20% | > 10 µM | > 10 µM | 23% | > 1 µM | > 1 µM | 0% | Ki (human CB2 receptor [4]; [7]): > 0.01 µM; inhibition at 10 µM (human CB2 receptor [4]; at 10 µM, vs. [3H]CP55,940): 30%
6 | CCc1ccc(O)c(-c2cc(CC)ccc2O)c1 [Compound 42] | 12% | > 10 µM | > 10 µM | 23% | 6% | > 10 µM | > 10 µM |  | 2.13 ± 0.84 µM | 2.87 ± 0.77 µM | 0% | 
7 | CCCCCCc1ccc(O)c(-c2cc(CCCCCC)ccc2O)c1 [Compound 45] | 127% | 11.7 ± 2.8 µM | > 10 µM | 0% | 0% | > 10 µM | > 10 µM |  | 4.64 ± 0.58 µM | 1.83 ± 0.19 µM | 0% | 
8 | CCCc1ccc(O)c(-c2ccccc2O)c1 [Compound 46] | 0% | > 10 µM | > 10 µM | 25% | 0% | > 10 µM | > 10 µM | 45% |  |  | 37% | inhibition at 10 µM (human CB2 receptor [4]; at 10 µM, vs. [3H]CP55,940): 49%; Ki (human CB2 receptor [4]; vs. [3H]CP55,940, read-out: Ki CB2): ~10 µM
9 | CCCCc1ccc(O)c(-c2ccccc2O)c1 [Compound 47] | 24% | > 10 µM | > 10 µM | 2% | 0% | > 10 µM | > 10 µM | 40% | ~1 µM | 2.03 ± 0.88 µM | 35% | 
10 | CCCCCc1ccc(O)c(-c2ccccc2O)c1 [Compound 48] | 18% | > 10 µM | ~10 µM | 42% | 0% | > 10 µM | > 10 µM |  | 6.59 ± 2.56 µM | 1.16 ± 0.29 µM | 25% | 
11 | CCCCCCc1ccc(O)c(-c2ccccc2O)c1 [Compound 49] | 48% | ~10 µM | > 10 µM | 39% | 0% | > 10 µM | > 10 µM |  | 6.63 ± 5.03 µM | 1.5 ± 0.64 µM | 34% | 
12 | CCCc1ccc(O)c(-c2cc(C)ccc2O)c1 [Compound 50] | 21% | > 10 µM | > 10 µM | 26% | 0% | > 10 µM | > 10 µM | 20% | > 1 µM |  | 4% | Ki (human CB2 receptor [4]; [7]): 7.38 ± 2.76 µM
13 | CCCCc1ccc(O)c(-c2cc(C)ccc2O)c1 [Compound 51] | 44% | ~10 µM | > 10 µM | 18% | 0% | > 10 µM | > 10 µM | 44% | ~1 µM | 1.69 ± 0.53 µM | 0% | 
14 | CCCCCc1ccc(O)c(-c2cc(C)ccc2O)c1 [Compound 52] | 45% | ~10 µM | > 10 µM | 9% | 0% | > 10 µM | > 10 µM |  | 1.23 ± 0.47 µM | 0.517 ± 0.101 µM | 0% | 
15 | CCCCCCc1ccc(O)c(-c2cc(C)ccc2O)c1 [Compound 53] | 118% | 11.5 ± 1.3 µM | > 10 µM | 28% | 0% | > 10 µM | > 10 µM |  | 0.822 ± 0.224 µM | 0.273 ± 0.096 µM | 0% | 
16 | CCCc1ccc(O)c(-c2cc(CC)ccc2O)c1 [Compound 54] | 67% | 10.5 ± 0.9 µM | > 10 µM | 0% | 0% | > 10 µM | > 10 µM | 43% | ~1 µM | 0.856 ± 0.367 µM | 19% | 
17 | CCCCc1ccc(O)c(-c2cc(CC)ccc2O)c1 [Compound 55] | 40% | ~10 µM | > 10 µM | 2% | 0% | > 10 µM | > 10 µM |  | 5.76 ± 2.85 µM | 0.235 ± 0.101 µM | 18% | selectivity for CB2 receptors over CB1 (human CB2 receptor [4]; from Ki values): ~25 fold
18 | CCCCCc1ccc(O)c(-c2cc(CC)ccc2O)c1 [Compound 56] | 95% | 13.6 ± 0.7 µM | > 10 µM | 3% | 0% | > 10 µM | > 10 µM |  | 0.634 ± 0.297 µM | 0.161 ± 0.033 µM | 2% | 
19 | CCCCCCc1ccc(O)c(-c2cc(CC)ccc2O)c1 [Compound 57] | 113% | 12.5 ± 0.8 µM | > 10 µM |  | 0% | > 10 µM | > 10 µM |  | 0.386 ± 0.029 µM |  | 0% | Ki (human CB2 receptor [4]; [7]): 0.083 ± 0.0118 µM
20 | CCCCc1ccc(O)c(-c2cc(CCC)ccc2O)c1 [Compound 58] | 104% | 13.5 ± 1.7 µM | > 10 µM | 21% | 0% | > 10 µM | ~10 µM |  | 3.61 ± 0.17 µM | 0.468 ± 0.133 µM | 44% | 
21 | CCCc1ccc(O)c(-c2cc(C(C)(C)C)ccc2O)c1 [Compound 59] | 54% | ~10 µM | > 10 µM | 0% | 0% | > 10 µM | ~10 µM |  | 5.81 ± 2.67 µM | 0.489 ± 0.049 µM | 54% | 
